Literature values in patent publication US20220296511A1, “COMPOSITIONS FOR DELIVERY OF DRUG COMBINATIONS TO TREAT LUNG DISEASE” (BOARD OF REGENTS, THE UNIVERSITY OF TEXAS SYSTEM, priority 2021, published 2022).
Where two headings read alike, the source gives them in different places. Values belong to the molecule of their own block, whether it stands above or below them.

Assays:
[1] = rats, 50 mg/mL MFF suspension for nebulization
[2] = 150 mg oral dose
[3] = phase 3 trial
[4] = not given; remark: listed apart in the source
[5] = not given; remark: listed apart in the source

therapeutic range (in vivo): 1.0 to 3.5 µg/mL | maximum plasma concentration decreased by food (oral): 40% | lung concentration of mycophenolic acid as % of serum concentration [1]: ~30%
SMILES: COc1c(C)c2c(c(O)c1C/C=C(\C)CCC(=O)O)C(=O)OC2 [mycophenolic acid]

half-life [2]: 9.49 h | plasma concentration [2]: 0.12 ng/mL/mg
SMILES: COC(=O)c1ccc2c(c1)NC(=O)/C2=C(\Nc1ccc(N(C)C(=O)CN2CCN(C)CC2)cc1)c1ccccc1 [nintedanib]
diarrhea reported ([3]; most common adverse reaction): 66.9% | reduction of FVC ([3]; nintedanib group): −80.0 mL per year

plasma concentration ([4]; 801 mg oral dose): 5000 ng/mL | lung concentration ([4]; 801 mg oral dose, worked out from plasma concentration): 0.7 µg/g | lung tissue concentration as percentage of plasma concentration ([4]; IV dose 40 mg/kg): nine | pirfenidone decreased by food ([4]; oral): 50% | aerosol epithelial lining fluid (ELF) concentration relative to 801 mg oral ([5]; 100 mg aerosol pirfenidone): 35 times | systemic exposure less than the oral delivery ([5]; 100 mg inhalation dose): 15 fold
SMILES: Cc1ccc(=O)n(-c2ccccc2)c1 [pirfenidone]
